# From ChEMBL document CHEMBL1158595, “2' biaryl amides as novel and subtype selective M1 agonists. Part II: Further optimization and profiling” (Bioorg Med Chem Lett, 2010)
# Assays:
# [1] = target: Muscarinic acetylcholine receptor M3 (Homo sapiens, UniProt P20309); assay: Inhibition of human muscarinic M3 receptor expressed in CHO cells; type: cell-based
# [2] = target: T1, Muscarinic acetylcholine receptor M1 (Homo sapiens, UniProt P11229); assay: Agonist activity at human muscarinic M1 receptor expressed in CHO cells assessed as effect on acetylcholine-induced intracellular calcium level by FLIPR assay; type: functional, cell-based
# T1 sequence (P11229 whole entry): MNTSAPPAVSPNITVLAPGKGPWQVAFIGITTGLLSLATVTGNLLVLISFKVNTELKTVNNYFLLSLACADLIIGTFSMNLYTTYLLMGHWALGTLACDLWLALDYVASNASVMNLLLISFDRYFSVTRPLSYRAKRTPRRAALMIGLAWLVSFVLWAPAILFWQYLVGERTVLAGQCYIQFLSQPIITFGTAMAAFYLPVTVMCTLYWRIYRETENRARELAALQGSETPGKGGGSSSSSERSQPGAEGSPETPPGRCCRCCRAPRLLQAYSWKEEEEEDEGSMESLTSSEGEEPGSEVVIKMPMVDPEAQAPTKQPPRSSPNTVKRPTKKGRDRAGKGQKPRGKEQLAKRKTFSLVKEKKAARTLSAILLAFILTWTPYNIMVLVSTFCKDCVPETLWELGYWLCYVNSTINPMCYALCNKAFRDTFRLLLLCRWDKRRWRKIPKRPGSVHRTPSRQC
# [3] = target: T2, Muscarinic acetylcholine receptor M1 (Homo sapiens) (UniProt P11229); assay: Intrinsic activity at human muscarinic M1 receptor expressed in CHO cells assessed as effect on acetylcholine-induced intracellular calcium level by FLIPR assay relative to acetylcholine; type: functional, cell-based
# T2 sequence (whole entry): T1 sequence (P11229 whole entry)
# Muscarinic acetylcholine receptor M3, sequence (P20309 whole entry): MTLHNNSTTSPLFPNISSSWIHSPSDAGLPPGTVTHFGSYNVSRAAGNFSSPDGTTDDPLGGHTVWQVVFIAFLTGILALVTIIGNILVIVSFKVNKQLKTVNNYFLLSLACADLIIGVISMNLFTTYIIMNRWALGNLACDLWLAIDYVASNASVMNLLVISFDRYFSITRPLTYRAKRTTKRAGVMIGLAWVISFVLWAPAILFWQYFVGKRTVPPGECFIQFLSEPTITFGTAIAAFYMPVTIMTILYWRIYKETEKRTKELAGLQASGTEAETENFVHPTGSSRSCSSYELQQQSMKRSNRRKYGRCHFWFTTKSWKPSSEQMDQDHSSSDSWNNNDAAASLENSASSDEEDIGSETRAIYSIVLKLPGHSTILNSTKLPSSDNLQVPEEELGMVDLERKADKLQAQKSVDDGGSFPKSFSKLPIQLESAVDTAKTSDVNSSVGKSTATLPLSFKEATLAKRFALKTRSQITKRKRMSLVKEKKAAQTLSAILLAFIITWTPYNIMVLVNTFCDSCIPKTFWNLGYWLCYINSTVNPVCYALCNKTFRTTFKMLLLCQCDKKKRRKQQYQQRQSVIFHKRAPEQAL
Compound,IC50 [1] [nM],EC50 [2] [nM],Intrinsic activity [3] [%]
CC[C@H]1CNCC[C@@H]1CNC(=O)c1c(F)cccc1-c1cccc(Cl)c1,10000,39.8,92
O=C(NCc1ccccc1-c1cccc(Cl)c1)C1CCNCC1,2000,501,81
CN(Cc1ccccc1-c1cccc(Cl)c1)C(=O)C1CCNCC1,–,> 10000,–
O=C(NCC1(F)CCNCC1)c1c(F)cccc1-c1cccc(Cl)c1,1260,63.1,87
O=C(NCC1CCNCC1)c1c(F)cccc1-c1cccc(Cl)c1,–,15.8,90
O=S(=O)(CCC1CCNCC1)c1ccccc1-c1cccc(Cl)c1,20,63.1,71
Fc1cccc(-c2cc(Cl)ccc2Cl)c1-c1nc(C2CCNCC2)no1,3980,501,65
O=C(NCC1CCNCC1)c1cc(F)ccc1-c1cccc(Cl)c1,–,50.1,78
CN(C(=O)Cc1ccccc1-c1cccc(Cl)c1)C1CCNCC1,–,50.1,7.8
O=C(NCCC1CCNCC1)c1ccccc1-c1cccc(Cl)c1,–,3160,52
CC1CNCC=C1CNC(=O)c1c(-c2cccc(Cl)c2)ccc(Cl)c1F (configuration not stated),–,158,72
CC(=O)N(Cc1ccccc1-c1cccc(Cl)c1)CC1CCNCC1,–,398,70
O=C(NCC1CCNCC1)c1sccc1-c1cccc(Cl)c1,–,> 10000,0
Cc1cccc(-c2cccc(Cl)c2)c1C(=O)NCC1CCNCC1,–,> 10000,37
Clc1cccc(-c2ccccc2CNCC2CCNCC2)c1,–,> 10000,–
CN(C(=O)CC1CCNCC1)c1ccccc1-c1cccc(Cl)c1,–,> 10000,–
CN(CC1CCNCC1)S(=O)(=O)c1ccccc1-c1cccc(Cl)c1,–,> 10000,–
O=C(OCC1CCNCC1)c1ccccc1-c1cccc(Cl)c1,–,> 10000,–
O=C(NCC1CCNCC1)c1cnccc1-c1cccc(Cl)c1,–,> 10000,20
O=C(NCC1CCNCC1)c1cccc(F)c1-c1cccc(Cl)c1,–,5010,45
O=C(NCC1CCNCC1)c1ccc(Cl)cc1-c1cccc(Cl)c1,–,100,79
O=C(CC1CCNCC1)Nc1ccccc1-c1cccc(Cl)c1,–,7940,43
C[C@H]1CNCC[C@H]1CNC(=O)c1c(F)cccc1-c1cccc(Cl)c1 (relative stereo),2510,20,92
O=C(NCC1CCNCC1)c1cc(Cl)ccc1-c1cccc(Cl)c1,–,100,74

Compound,IC50 [1] [nM],EC50 [2] [nM],Intrinsic activity [3] [%]
Clc1cccc(-c2ccccc2COCC2CCNCC2)c1,–,> 10000,–
O=C(Cc1ccccc1-c1cccc(Cl)c1)NC1CCNCC1,126,158,74
OC(CCC1CCNCC1)c1ccccc1-c1cccc(Cl)c1 (configuration not stated),2,1,100
O=C(NCC1CCNCC1)c1ccc(F)cc1-c1cccc(Cl)c1,–,> 10000,24
Clc1cccc(-c2ccccc2/C=C/CC2CCNCC2)c1,12.6,1000,55
O=C(NC[C@H]1CCNC[C@H]1F)c1c(F)cccc1-c1cccc(Cl)c1,10000,158,68
Cc1cccc(C(=O)NCC2CCNCC2)c1-c1cccc(Cl)c1,–,> 10000,34
Cc1ccc(-c2cccc(Cl)c2)c(C(=O)NCC2CCNCC2)c1,–,1000,67
Cc1ccc(C(=O)NCC2CCNCC2)c(-c2cccc(Cl)c2)c1,–,158,77
Cn1cc(-c2cccc(Cl)c2)c(C(=O)NCC2CCNCC2)n1,–,> 10000,0
CS(=O)(=O)N(Cc1c(F)cccc1-c1cccc(Cl)c1)CC1CCNCC1,–,1580,51
O=C(NCC1CCNCC1)c1c(F)cccc1-c1cc(Cl)ccc1Cl,1260,31.6,92
Fc1cccc(-c2cccc(Cl)c2)c1-c1noc(C2CCNCC2)n1,–,> 10000,–
O=C(NCC1CCNCC1)c1c(-c2cccc(Cl)c2)ccc(Cl)c1F,–,25.1,80
Clc1cccc(-c2ccccc2OCCC2CCNCC2)c1,–,> 10000,–
O=S(=O)(NCC1CCNCC1)c1ccccc1-c1cccc(Cl)c1,–,> 10000,–
O=C(CCC1CCNCC1)c1ccccc1-c1cccc(Cl)c1,–,> 10000,–
Fc1cccc(-c2cccc(Cl)c2)c1-c1noc(CC2CCNCC2)n1,–,> 10000,–
O=C(NCC1=C(F)CNCC1)c1c(-c2cccc(Cl)c2)ccc(Cl)c1F,10000,158,74
O=C(NCC1CCNCC1)c1cccnc1-c1cccc(Cl)c1,–,> 10000,0
O=C(NCC1CCNCC1)c1ncccc1-c1cccc(Cl)c1,–,> 10000,18
O=C(NCC1CCNCC1)c1c(Cl)cccc1-c1cccc(Cl)c1,–,63.1,109
O=C(NCC1CCNCC1)c1ccncc1-c1cccc(Cl)c1,–,> 10000,3
O=C(NCC1CCNCC1)c1cccc(Cl)c1-c1cccc(Cl)c1,–,> 10000,14
